In data set [1] the target is T1, Androgen receptor (Homo sapiens, UniProt P10275).
T1 sequence (P10275 whole entry): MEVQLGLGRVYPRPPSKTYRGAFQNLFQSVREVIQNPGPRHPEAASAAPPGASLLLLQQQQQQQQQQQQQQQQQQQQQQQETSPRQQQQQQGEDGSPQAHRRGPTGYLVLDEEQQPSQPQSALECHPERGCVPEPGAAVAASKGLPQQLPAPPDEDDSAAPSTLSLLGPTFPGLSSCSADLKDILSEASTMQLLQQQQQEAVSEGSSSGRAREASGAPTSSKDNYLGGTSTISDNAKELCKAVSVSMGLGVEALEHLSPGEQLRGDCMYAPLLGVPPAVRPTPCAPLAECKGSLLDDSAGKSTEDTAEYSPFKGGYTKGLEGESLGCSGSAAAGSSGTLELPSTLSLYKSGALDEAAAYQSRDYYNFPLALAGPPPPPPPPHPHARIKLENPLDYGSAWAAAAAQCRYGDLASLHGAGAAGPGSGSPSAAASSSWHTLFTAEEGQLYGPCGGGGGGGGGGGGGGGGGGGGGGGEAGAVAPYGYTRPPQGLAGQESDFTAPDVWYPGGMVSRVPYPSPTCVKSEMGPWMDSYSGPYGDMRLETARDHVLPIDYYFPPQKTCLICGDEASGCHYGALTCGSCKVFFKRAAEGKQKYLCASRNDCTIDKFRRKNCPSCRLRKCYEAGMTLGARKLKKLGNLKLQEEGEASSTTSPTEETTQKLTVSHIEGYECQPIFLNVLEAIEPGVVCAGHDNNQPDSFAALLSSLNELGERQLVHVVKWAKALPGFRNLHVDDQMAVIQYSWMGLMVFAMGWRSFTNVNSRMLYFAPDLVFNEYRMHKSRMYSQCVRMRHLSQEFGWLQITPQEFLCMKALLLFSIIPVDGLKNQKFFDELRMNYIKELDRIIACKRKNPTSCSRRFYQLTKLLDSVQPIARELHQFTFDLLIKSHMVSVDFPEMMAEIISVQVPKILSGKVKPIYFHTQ
Kind of data set: Agonist activity at AR (unknown origin) expressed in human LNCaP cells incubated for 20 hrs by luciferase reporter gene assay. It is filed as cell-based.

Data set [2] deals with T1, Androgen receptor. As to the kind of experiment: Antagonist activity at AR (unknown origin) expressed in human LNCaP cells assessed as reduction in R1881-induced response incubated for 20 hrs by luciferase reporter gene assay. It is filed as cell-based. (In general: In a reporter assay the amount or activity of a reporter protein is the signal.)
The target in data set [3] is T1, Androgen receptor. As to the kind of experiment: Agonist activity at AR in human LNAR cells assessed as increase in PSA gene expression at 100 nM incubated for 24 hrs by RT-qPCR method. The data set is classed as cell-based. To be noted: 0.1 µM. Background: In qPCR the cycle at which signal appears reflects the starting amount.
Data set [4] can be described thus: Cmax in rat at 5 mg/kg, po. It is filed as ADME, organism-based. Further details: dose 5 mg/kg, route oral; call rule not given here. To be noted: in vivo.
Data set [5] can be described thus: Unbound fraction in human plasma. The data set is classed as ADME, cell-free.
The target of data set [6] is T2, Mineralocorticoid receptor (Homo sapiens, UniProt P08235).
T2 sequence (P08235 whole entry): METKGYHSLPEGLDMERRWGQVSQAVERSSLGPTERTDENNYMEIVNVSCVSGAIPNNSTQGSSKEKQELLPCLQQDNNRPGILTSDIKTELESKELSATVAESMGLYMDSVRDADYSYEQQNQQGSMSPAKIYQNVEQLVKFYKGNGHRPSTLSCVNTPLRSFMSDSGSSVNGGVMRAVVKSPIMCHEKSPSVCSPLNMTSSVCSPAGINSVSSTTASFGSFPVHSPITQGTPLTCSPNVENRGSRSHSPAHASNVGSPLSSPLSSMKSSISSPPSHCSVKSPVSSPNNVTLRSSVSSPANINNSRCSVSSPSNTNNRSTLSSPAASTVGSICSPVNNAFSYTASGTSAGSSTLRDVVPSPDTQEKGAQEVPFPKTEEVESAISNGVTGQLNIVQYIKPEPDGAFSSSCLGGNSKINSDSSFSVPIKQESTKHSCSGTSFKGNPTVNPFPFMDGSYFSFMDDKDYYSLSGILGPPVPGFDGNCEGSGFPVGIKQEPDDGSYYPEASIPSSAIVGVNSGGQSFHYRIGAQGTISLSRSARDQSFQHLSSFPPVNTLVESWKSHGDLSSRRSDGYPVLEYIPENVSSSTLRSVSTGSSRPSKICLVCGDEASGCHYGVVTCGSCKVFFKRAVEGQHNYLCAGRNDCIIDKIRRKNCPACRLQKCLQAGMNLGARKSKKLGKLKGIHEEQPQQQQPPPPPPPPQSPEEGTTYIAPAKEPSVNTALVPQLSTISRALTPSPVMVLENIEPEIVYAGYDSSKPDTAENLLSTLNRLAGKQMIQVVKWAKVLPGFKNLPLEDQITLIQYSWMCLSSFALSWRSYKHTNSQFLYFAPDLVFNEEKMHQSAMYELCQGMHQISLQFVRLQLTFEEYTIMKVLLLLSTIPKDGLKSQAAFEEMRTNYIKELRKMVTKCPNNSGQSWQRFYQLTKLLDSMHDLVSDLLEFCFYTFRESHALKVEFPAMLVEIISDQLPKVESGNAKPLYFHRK
Kind of data set: Agonist activity at human MR expressed in CHO-K1 cells assessed as increase in protein interaction between MR and its coactivator SRC at 5 uM incubated for 24 hrs by beta-galactosidase based chemiluminescence assay. To be noted: cho-k1, 24 h. It is filed as cell-based.

In the next data set the target is T3, Glucocorticoid receptor (Rattus norvegicus, UniProt P06536).
T3 sequence (P06536 whole entry): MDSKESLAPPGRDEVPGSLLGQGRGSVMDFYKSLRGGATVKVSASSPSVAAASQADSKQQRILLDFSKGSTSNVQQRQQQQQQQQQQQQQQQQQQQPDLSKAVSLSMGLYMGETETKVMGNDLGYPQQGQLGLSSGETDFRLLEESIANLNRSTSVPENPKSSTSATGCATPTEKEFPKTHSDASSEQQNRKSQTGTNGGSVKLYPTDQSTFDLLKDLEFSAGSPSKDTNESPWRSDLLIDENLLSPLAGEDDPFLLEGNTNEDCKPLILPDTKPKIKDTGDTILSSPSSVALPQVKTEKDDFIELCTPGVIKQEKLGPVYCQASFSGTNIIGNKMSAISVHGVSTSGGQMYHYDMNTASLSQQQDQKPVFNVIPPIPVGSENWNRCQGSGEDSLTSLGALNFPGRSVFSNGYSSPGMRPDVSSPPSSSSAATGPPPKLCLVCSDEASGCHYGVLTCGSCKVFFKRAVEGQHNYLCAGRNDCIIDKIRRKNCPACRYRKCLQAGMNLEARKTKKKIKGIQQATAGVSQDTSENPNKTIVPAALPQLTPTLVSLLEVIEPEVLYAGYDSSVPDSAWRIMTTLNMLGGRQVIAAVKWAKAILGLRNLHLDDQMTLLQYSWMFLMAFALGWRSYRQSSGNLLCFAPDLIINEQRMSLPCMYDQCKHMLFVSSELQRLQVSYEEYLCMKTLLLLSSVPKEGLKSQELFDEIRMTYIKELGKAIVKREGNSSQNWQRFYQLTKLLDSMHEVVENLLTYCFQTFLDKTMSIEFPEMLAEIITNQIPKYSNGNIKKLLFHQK
As to the kind of experiment: Antagonist activity at GR in rat PBMC assessed as reduction in dexamethasone-induced FKBP5 gene expression incubated for 24 hrs by RT-qPCR method. The data set is classed as cell-based.

Data set [7] in a line: Antagonist activity at GR in monkey PBMC assessed as reduction in dexamethasone-induced GILZ gene expression incubated for 6 hrs by RT-qPCR method. To be noted: Macaca mulatta. The data set is classed as cell-based.

For `CC(C)N(C)c1ccc([C@H]2C[C@@]3(C)[C@@H](CC[C@@]3(O)C#CC(C)(C)C)[C@@H]3CCC4=CC(=O)CC[C@@H]4[C@H]32)cc1`, the EC50 (in general, the concentration at which the effect is half-maximal) on Androgen receptor [1] is greater than 2500 nM. For the same compound, the IC50 (commonly the concentration at which inhibition is half-maximal) at Androgen receptor [2] turned out to be 484 nM; on Glucocorticoid receptor it was 45.6 nM; in data set [7], 14.9 nM. In addition, the Activity result (on Androgen receptor [3]; in data set [6]) was “Not Active” in each case. Moreover, the Cmax (usually the highest concentration seen after dosing) in data set [4] was 149 ng/mL. The fraction unbound (in general, free concentration divided by total concentration) in data set [5] was found to be 0.14.
